The values that follow come from US8841309B2, “Substituted pyrazines and their use in the treatment of disease” (Boehringer Ingelheim International GmbH, priority 2012, dated 2014).

SMILES strings stand for the structures. pIC50: −log10 of the molar value. Counter-ions that a name gives are not always drawn.

The pIC50 is −log10 of the IC50, conventionally taken in molar units.

For this test, the target named is T1, ENaC (Mus musculus, UniProt Q61180+Q9WU38+Q9WU39).
T1 construct: Mouse kidney M-1 cells were cultivated in DMEM containing 5% FCS and 5 μM dexamethasone; endogenous in cells; host or cells: mouse kidney M-1 cells
T1 sequence (Q61180 1-699): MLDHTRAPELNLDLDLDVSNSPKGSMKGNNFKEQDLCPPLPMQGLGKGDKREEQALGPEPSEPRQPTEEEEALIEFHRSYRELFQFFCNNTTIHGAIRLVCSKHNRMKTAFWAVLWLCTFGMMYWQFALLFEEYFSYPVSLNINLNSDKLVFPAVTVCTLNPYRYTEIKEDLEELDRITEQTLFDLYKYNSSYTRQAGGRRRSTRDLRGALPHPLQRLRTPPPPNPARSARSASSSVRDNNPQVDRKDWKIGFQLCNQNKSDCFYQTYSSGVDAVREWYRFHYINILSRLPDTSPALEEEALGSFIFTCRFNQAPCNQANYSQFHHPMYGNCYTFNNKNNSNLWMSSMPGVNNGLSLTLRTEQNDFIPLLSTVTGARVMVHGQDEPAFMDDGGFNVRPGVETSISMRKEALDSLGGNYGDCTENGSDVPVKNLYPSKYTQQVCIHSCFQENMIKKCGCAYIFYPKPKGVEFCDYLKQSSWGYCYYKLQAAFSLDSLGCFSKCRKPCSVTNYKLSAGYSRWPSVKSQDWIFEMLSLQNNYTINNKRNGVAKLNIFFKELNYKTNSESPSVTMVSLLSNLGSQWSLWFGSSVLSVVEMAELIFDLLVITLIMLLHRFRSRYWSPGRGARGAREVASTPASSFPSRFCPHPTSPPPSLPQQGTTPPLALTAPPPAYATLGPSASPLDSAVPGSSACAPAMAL
T1 sequence (Q9WU38 1-638): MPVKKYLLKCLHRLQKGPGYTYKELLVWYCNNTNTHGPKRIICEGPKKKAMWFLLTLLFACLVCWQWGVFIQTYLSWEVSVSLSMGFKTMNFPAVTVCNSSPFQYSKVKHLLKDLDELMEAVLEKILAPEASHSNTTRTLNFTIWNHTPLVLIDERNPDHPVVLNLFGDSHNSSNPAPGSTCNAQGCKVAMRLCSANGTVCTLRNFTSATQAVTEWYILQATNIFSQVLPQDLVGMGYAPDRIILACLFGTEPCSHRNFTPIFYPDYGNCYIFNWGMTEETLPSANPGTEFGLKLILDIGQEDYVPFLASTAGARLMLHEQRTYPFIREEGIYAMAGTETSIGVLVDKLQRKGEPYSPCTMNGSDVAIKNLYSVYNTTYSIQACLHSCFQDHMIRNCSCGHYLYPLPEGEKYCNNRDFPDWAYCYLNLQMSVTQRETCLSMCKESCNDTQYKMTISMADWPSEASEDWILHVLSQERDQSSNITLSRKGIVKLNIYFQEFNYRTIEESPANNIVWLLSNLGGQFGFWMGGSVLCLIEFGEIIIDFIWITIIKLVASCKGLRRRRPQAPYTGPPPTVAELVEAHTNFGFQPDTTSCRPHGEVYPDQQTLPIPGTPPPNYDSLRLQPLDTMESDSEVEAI
T1 sequence (Q9WU39 1-655): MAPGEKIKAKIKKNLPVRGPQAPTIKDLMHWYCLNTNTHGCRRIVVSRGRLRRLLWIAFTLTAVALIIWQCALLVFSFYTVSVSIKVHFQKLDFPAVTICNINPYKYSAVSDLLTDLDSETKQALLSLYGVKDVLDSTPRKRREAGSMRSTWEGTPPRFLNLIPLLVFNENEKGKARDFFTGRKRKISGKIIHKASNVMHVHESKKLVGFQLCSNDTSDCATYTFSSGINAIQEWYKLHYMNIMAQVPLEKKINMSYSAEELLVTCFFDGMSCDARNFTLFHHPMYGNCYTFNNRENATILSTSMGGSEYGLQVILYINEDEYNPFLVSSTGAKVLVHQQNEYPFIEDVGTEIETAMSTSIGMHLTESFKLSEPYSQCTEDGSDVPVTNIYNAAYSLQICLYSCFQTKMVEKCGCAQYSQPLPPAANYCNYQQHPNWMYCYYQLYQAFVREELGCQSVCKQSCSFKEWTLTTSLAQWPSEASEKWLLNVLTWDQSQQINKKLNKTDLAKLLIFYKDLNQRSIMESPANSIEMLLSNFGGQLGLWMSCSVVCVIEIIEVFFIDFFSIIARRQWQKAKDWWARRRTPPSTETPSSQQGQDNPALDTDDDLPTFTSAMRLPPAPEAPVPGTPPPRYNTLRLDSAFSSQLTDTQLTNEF
As to the kind of experiment: Ussing chamber: short circuit current (I_sc) in mouse kidney M-1 cells, amiloride-sensitive. Type of test: cell-based. Conditions: compound applied to apical solution, 37° C. Here is the method:
Ussing Chamber: Mouse kidney M-1 cells were cultivated in DMEM containing 5% FCS and 5 μM dexamethasone for 10 to 12 days on polyester transwell filters. Filters were inserted into a teflon-coated well-plate which fit into the in-house ussing chamber system. Prior to measurement the medium of M-1 cells was replaced with Caco-2 transport buffer (Invitrogen, Germany). During measurements, the Ussing chamber temperature was kept at 37° C. Short circuit currents (I_sc) were measured in the voltage-clamp mode using an in-house built amplifier (Boehringer Ingelheim, Biberach) with the software package Lab View for data acquisition and analysis. The transepithelial electrical resistance (TEER) was determined by the application of voltage steps of ±5 mV every 5 sec. Compounds were administered at a final concentration of 3 μM or at increasing concentrations (1-3-10 μM) to the apical solution. At the end of each experiment the amiloride sensitive I_SC was measured by adding 3 μM amiloride to the apical compartment. Results are expressed as inhibition in percent of the amiloride effect or as IC50.
With `COC(=O)c1ccc(CCNC(=O)C[N+]23CCC(CC2)[C@H](NC(N)=NC(=O)c2nc(Cl)c(N)nc2N)C3)cc1` [Example 61], the pIC50 was 8.70.

As to `NC(=NC(=O)c1nc(Cl)c(N)nc1N)N[C@@H]1C[N+]2(CC(=O)N3CCN(c4ccccn4)CC3)CCC1CC2` [Example 62], the pIC50 is 7.70.

In the case of `N#Cc1ccc(CNC(=O)C[N+]23CCC(CC2)[C@H](NC(N)=NC(=O)c2nc(Cl)c(N)nc2N)C3)cc1` [Example 63], the pIC50 is 7.52.

The molecule `CCOC(=O)N1CCC(NC(=O)C[N+]23CCC(CC2)[C@H](NC(N)=NC(=O)c2nc(Cl)c(N)nc2N)C3)CC1` [Example 64] showed a pIC50 of 7.12.

Molecule `CN(CCc1ccccc1)C(=O)C[N+]12CCC(CC1)[C@H](NC(N)=NC(=O)c1nc(Cl)c(N)nc1N)C2` [Example 65] had a pIC50 of 8.70.

Regarding `NC(=NC(=O)c1nc(Cl)c(N)nc1N)N[C@@H]1C[N+]2(CC(=O)N3CCN(c4ncccn4)CC3)CCC1CC2` [Example 66], the pIC50 was 7.66.

Take `CC(C)(C)OC(=O)C1CCN(C(=O)C[N+]23CCC(CC2)[C@H](NC(N)=NC(=O)c2nc(Cl)c(N)nc2N)C3)CC1` [Example 67, (S)-1-[2-(4-tert-butoxycarbonyl-piperidin-1-yl)-2-oxo-ethyl]-3-[N′-(3,5-diamino-6-chloro-pyrazine-2-carbonyl)-guanidino]-1-azonia-bicyclo[2.2.2]octane; chloride]: the pIC50 is 7.40.

Molecule `CCNC(=O)C(c1ccccc1)[N+]12CCC(CC1)[C@H](NC(=N)NC(=O)c1nc(Cl)c(N)nc1N)C2` (stereo partly drawn) [Example 68.1, (S)-3-[N′-(3,5-Diamino-6-chloro-pyrazine-2-carbonyl)-guanidino]-1-(ethylcarbamoyl-phenyl-methyl)-1-azonia-bicyclo[2.2.2]octane bromide] showed a pIC50 of 7.74.

`CC(C)=CC[N+]12CCC(CC1)[C@H](N/C(N)=N/C(=O)c1nc(Cl)c(N)nc1N)C2` [Example 69, (S)-3-[N′-(3,5-Diamino-6-chloro-pyrazine-2-carbonyl)-guanidino]-1-(3-methyl-but-2-enyl)-1-azoniabicyclo[2.2.2]octane chloride]: the pIC50 is 6.73.

Turning to `C[N+]1(Cc2ccccc2)CCC(N/C(N)=N/C(=O)c2nc(Cl)c(N)nc2N)CC1` (stereo not shown) [Example 70, 1-Benzyl-4-[N′-(3,5-diamino-6-chloro-pyrazine-2-carbonyl)-guanidino]-1-methyl-piperidinium chloride], the pIC50 is 6.97.

Take `COC(=O)c1ccc(C[N+]2(C)CCC(NC(N)=NC(=O)c3nc(Cl)c(N)nc3N)CC2)cc1` (stereo not shown) [Example 70.1]: the pIC50 is 7.19.

Turning to `CC[N+]1(Cc2ccccc2)CCC(NC(N)=NC(=O)c2nc(Cl)c(N)nc2N)CC1` (stereo not shown) [Example 70.2], the pIC50 is 7.28.

For the molecule `CCNC(=O)C[N+]1(C)CCC[C@@H](NC(N)=NC(=O)c2nc(Cl)c(N)nc2N)C1` (stereo partly shown) [Example 70.3], the pIC50 is 6.59.

In the case of `CC[N+]1(CC(=O)Nc2cccc(F)c2)CCC(NC(N)=NC(=O)c2nc(Cl)c(N)nc2N)CC1` (stereo not shown) [Example 70.7], the pIC50 was 7.51.

The molecule `C[N+]1(Cc2ccccc2)CC[C@H](NC(N)=NC(=O)c2nc(Cl)c(N)nc2N)C1` (stereo partly shown) [Example 71.2] showed a pIC50 of 6.95.

Consider `CN(C(=O)C[N+]1(C)CCC(NC(N)=NC(=O)c2nc(Cl)c(N)nc2N)CC1)c1ccccc1` (stereo not shown) [Example 72.1], for which the pIC50 is 6.86.

`CN(Cc1ccccc1)C(=O)C[N+]1(C)CCC(NC(N)=NC(=O)c2nc(Cl)c(N)nc2N)CC1` (stereo not shown) [Example 72.2] gave a pIC50 of 7.12.

Turning to `COC(=O)c1ccccc1NC(=O)C[N+]1(C)CCC(NC(N)=NC(=O)c2nc(Cl)c(N)nc2N)CC1` (stereo not shown) [Example 72.3], the pIC50 was 7.66.

`N=C(NC(=O)c1nc(Cl)c(N)nc1N)N[C@@H]1C[N+]2(CC(=O)N[C@@H](Cc3ccccc3)C(=O)O)CCC1CC2` [Example 73, (S)-1-[((S)-1-Carboxy-2-phenyl-ethylcarbamoyl)-methyl]-3-[N′-(3,5-diamino-6-chloro-pyrazine-2-carbonyl)-guanidino]-1-azonia-bicyclo[2.2.2]octane chloride hydrochloride] showed a pIC50 of 8.40.

Consider `N=C(NC(=O)c1nc(Cl)c(N)nc1N)N[C@@H]1C[N+]2(CC(=O)N[C@H](Cc3ccccc3)C(=O)O)CCC1CC2` [Example 73.1, (S)-1-[((R)-1-Carboxy-2-phenyl-ethylcarbamoyl)-methyl]-3-[N′-(3,5-diamino-6-chloro-pyrazine-2-carbonyl)-guanidino]-1-azonia-bicyclo[2.2.2]octane; chloride hydrochloride], for which the pIC50 is 6.71.

On to `N=C(NC(=O)c1nc(Cl)c(N)nc1N)N[C@@H]1C[N+]2(CC(=O)N3CCC(C(=O)O)CC3)CCC1CC2` [Example 73.2, (S)-1-[2-(4-Carboxy-piperidin-1-yl)-2-oxo-ethyl]-3-[N′-(3,5-diamino-6-chloro-pyrazine-2-carbonyl)-guanidino]-1-azonia-bicyclo[2.2.2]octane chloride hydrochloride], for which the pIC50 was 6.57.

As for `NC(=NC(=O)c1nc(Cl)c(N)nc1N)N[C@@H]1C[N+]2(CC(=O)NCC3(c4ccccc4)CCOCC3)CCC1CC2` [Example 74], the negative-log IC50 (pIC50) is 7.82.

In the case of `NC(=NC(=O)c1nc(Cl)c(N)nc1N)NC1C[N+]2(CC(=O)NC3CCC(c4ccccc4)CC3)CCC1CC2` (stereo not shown) [Example 75], the pIC50 was 7.66.

The molecule `NC(=NC(=O)c1nc(Cl)c(N)nc1N)N[C@@H]1C[N+]2(CC(=O)NCC3CCOCC3)CCC1CC2` [Example 76] had a pIC50 of 7.41.

In the case of `CCOC(=O)c1cccc(CCNC(=O)C[N+]23CCC(CC2)[C@H](NC(N)=NC(=O)c2nc(Cl)c(N)nc2N)C3)c1` [Example 77], the pIC50 is 7.37.
